Reference: article PMC10631261 (Chemical Science, 2023)
Where “and” joins values, the source holds several entries; their conditions need not be identical. Equal values may be shown once. Read-outs that look alike come from different tables or passages of the source.

Experiments:
FIH = target: T1, FIH (Homo sapiens, UniProt Q9NWT6); assay: SPE-MS FIH inhibition assay; format: biochemical; details: for reduction of FIH inhibition compared to 4: IC50 comparison with compound 4
T1 construct: made in house
T1 sequence (Q9NWT6 whole entry): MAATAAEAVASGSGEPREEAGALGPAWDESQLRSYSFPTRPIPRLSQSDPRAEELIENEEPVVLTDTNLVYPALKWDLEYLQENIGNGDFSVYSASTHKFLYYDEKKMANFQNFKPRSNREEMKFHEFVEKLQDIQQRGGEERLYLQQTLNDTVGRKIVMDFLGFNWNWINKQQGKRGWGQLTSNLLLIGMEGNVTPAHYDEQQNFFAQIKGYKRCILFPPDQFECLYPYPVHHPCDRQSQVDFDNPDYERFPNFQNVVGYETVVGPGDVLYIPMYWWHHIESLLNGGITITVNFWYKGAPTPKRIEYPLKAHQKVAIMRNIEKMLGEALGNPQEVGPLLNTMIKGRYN
Description: (§1) Protein production and purification
(§2) PAGE analysis) according to established procedures.
(§3) FIH, PHD2, AspH, JMJD5 and KDM4A inhibition assays
(§4) The in vitro FIH,1, 2 PHD2,1 AspH,38 JMJD536 and KDM4A39 inhibition assays were performed as […]
(§5) KDM4A). Synthetic peptide substrates were used: HIF-1α C-terminal transactivation domain fragment […]
(§6) H3Lys9 bearing three methyl groups at the N ϵ position, H3Lys4 substituted by an Ala and H3Lys14 substituted by an Ile residue) for KDM4A.39 Peptides were prepared as C-terminal amides by GL Biochem (Shanghai) Ltd. Peptide hydroxylation in the case of FIH, PHD2, AspH and JMJD5 (+16 Da mass shift) or peptide demethylation in the case of KDM4A ( -14 Da mass shift) was monitored by SPE-MS. […]

PHD2 = PHD2 (Homo sapiens, UniProt Q9GZT9); assay: biochemical
Sequence of PHD2 (Q9GZT9 181-426): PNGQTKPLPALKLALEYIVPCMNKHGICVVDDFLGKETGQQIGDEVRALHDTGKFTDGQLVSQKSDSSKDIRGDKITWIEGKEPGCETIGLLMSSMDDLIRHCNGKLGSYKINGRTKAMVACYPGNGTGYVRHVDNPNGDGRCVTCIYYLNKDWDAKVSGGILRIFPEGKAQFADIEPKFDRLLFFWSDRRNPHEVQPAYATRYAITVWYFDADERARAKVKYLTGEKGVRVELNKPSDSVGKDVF
Description: (§7) 3. Biochemical procedures
as §1, §2, §3, §4, §5, §6

AspH = AspH (Homo sapiens, UniProt Q12797); assay: biochemical
Sequence of AspH (Q12797 315-758): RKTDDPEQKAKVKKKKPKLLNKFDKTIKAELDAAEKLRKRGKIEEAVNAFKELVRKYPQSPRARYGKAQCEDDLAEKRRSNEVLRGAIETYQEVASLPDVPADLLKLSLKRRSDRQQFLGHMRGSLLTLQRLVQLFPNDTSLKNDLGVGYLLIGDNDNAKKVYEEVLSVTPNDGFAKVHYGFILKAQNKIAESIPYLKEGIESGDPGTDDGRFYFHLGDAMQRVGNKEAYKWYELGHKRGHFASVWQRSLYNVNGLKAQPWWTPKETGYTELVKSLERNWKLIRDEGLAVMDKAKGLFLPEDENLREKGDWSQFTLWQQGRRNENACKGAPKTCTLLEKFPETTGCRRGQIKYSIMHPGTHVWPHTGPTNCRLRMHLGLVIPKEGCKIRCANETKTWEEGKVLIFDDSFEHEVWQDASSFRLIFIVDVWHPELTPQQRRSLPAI
From the text: (§8) To investigate the potential of BNS for selective FIH inhibition, its selectivity was investigated with respect to other 2OG-dependent protein oxidising enzymes, that is PHD2, Jumonji-C domain-containing protein 5 (JMJD5), aspartate/asparagine-β-hydroxylase (AspH) and KDM4A, using reported SPE-MS inhibition assays.[58,61,69,70] In addition to PHD2 and KDM4A, we included AspH and JMJD5 in our selectivity studies, because AspH, like FIH, catalyses protein aspartate- and asparagine-residue hydroxylation (although in epidermal growth factor-like domains),[71,72] and because JMJD5 is structurally closely related to FIH.[73,74]
as §7, §1, §2, §3, §4, §5, §6

JMJD5 = JMJD5 (Homo sapiens, UniProt Q8N371); assay: biochemical
Sequence of JMJD5 (Q8N371 whole entry): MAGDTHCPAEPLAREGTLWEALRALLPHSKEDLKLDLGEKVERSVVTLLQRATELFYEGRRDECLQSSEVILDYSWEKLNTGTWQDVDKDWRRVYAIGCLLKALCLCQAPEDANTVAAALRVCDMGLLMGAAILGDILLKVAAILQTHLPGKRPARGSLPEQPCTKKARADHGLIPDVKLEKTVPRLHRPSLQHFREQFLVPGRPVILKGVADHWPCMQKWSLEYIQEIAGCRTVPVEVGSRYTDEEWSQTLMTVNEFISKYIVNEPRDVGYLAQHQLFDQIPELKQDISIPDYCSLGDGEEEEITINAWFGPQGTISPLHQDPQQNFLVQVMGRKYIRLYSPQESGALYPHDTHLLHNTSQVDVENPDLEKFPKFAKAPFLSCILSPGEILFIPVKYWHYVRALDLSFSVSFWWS
From the text: as §8, §7, §1, §2, §3, §4, §5, §6

KDM4A = KDM4A (Homo sapiens, UniProt O75164); assay: biochemical; format: biochemical
Sequence of KDM4A (O75164 1-359): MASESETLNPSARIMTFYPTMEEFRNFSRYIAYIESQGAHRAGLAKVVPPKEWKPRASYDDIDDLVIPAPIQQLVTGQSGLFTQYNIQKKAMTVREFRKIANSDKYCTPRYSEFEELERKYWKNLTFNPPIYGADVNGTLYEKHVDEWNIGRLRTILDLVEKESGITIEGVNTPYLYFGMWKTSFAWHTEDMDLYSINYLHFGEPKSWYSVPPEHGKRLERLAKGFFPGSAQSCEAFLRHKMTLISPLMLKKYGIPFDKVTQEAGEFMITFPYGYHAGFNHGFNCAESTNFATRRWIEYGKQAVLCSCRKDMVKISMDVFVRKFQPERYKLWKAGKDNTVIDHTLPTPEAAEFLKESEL
From the text: as §8, §7, §1, §2, §3, §4, §5, §6

[1] = 0.15 μM FIH, 10.0 μM 2OG, 5.0 μM HIF-1α C-TAD788–822, SPE-MS, read-out: FIH IC50

Row | Compound | IC50 (FIH) [µM] | IC50 (PHD2) [µM] | IC50 (AspH) | IC50 (JMJD5; read-out: JMJD5 IC50) [µM] | IC50 (KDM4A) [µM] | increase in FIH inhibitory activity compared with other PHD inhibitors (FIH; as judged by IC50 comparison, ESI Table S1) [fold] | selectivity for FIH inhibition over PHD2 inhibition (FIH; as judged by IC50 values) [fold] | IC50 (PHD2; 0.15 μM PHD2 181–426, 10.0 μM 2OG, 5.0 μM HIF-1α CODD556–574, SPE-MS) [µM] | IC50 (FIH; [1]) [µM] | reduction of FIH inhibition compared to 4 (FIH) [fold] | IC50 (JMJD5) [µM]
1 | C[C@@H]1CN(S(=O)(=O)c2ccccc2)C[C@H]1C(=O)/N=c1\scc(CC(=O)O)n1O (relative stereo) [compound 30] | 1.7 ± 0.4 | 71.7 ± 26.6 | > 100 µM | 25.6 ± 0.6 | > 100 | – | – | – | – | – | –
2 | O=C(O)Cc1cs/c(=N\C(=O)CS(=O)(=O)Cc2ccc3ccccc3c2)n1O [BNS, reference compound] | 0.3 ± 0.07 | – | 3.36 µM and 3.4 µM | 0.25 ± 0.01 | 67.4 ± 39.8 | > 50 | ~0.4 | 0.11 | – | – | –
3 | O=C(O)CNC(=O)c1c(O)c2ccccc2n(OCC2CC2)c1=O [Desidustat, reference compound] | 41.4 ± 1.1 | – | – | – | – | – | – | – | – | – | –
4 | O=C(O)CNC(=O)c1c(O)cc(CCc2ccccc2)n2ncnc12 [Enarodustat, reference compound] | > 100 | – | – | – | – | – | – | – | – | – | –
5 | O=C(O)CNC(=O)c1c(O)c2cc(F)ccc2n(CCC2CC2)c1=O [GSK360A, reference compound] | – | – | – | – | – | – | – | – | > 100 | – | –
6 | O=C(O)c1cnn(-c2nc3cc(OC(F)(F)F)c(Cl)cc3[nH]2)c1 [JNJ-42041935, reference compound] | – | – | – | – | – | – | – | – | 56.4 ± 1.6 | – | –
7 | O=C(O)CNC(=O)C1=C(O)CCN(Cc2ccc(Oc3ccc(Cl)cc3)nc2)C1=O [TP0463518, reference compound] | – | – | – | – | – | – | – | – | 39.7 ± 0.6 | – | –
8 | CCOC(=O)Cc1cs/c(=N\C(=O)CS(=O)(=O)c2ccccc2)n1O [compound 3] | > 100 | > 100 | 68 ± 26.8 µM | > 100 | > 100 | – | – | – | – | – | –
9 | O=C(O)Cc1cs/c(=N\C(=O)CS(=O)(=O)c2ccccc2)n1O [compound 4] | 0.28 | – | 9.6 ± 1.3 µM | 0.48 ± 0.01 | > 100 | – | – | – | – | – | –
10 | O=C(O)Cc1csc(NC(=O)CS(=O)(=O)c2ccccc2)n1 [compound 5] | > 100 | > 100 | > 100 µM | > 100 | > 100 | – | – | – | – | – | –
11 | CC(C(=O)O)c1cs/c(=N\C(=O)CS(=O)(=O)c2ccccc2)n1O (stereo not drawn) [compound 6] | 61 ± 3.1 | – | 25.6 ± 12.7 µM | – | > 100 | – | – | – | – | > 100 | 60.5 ± 1
12 | Cc1s/c(=N\C(=O)CS(=O)(=O)c2ccccc2)n(O)c1CC(=O)O [compound 7] | 36.7 ± 4.9 | – | 24.3 ± 12.3 µM | > 100 | > 100 | – | – | – | – | > 100 | –
13 | O=C(CS(=O)(=O)c1ccccc1)/N=c1\sccn1O [compound 8] | > 100 | > 100 | > 100 µM | > 100 | > 100 | – | – | – | – | – | –
14 | COC(=O)Cc1cs/c(=N\C(=O)CS(=O)(=O)c2ccccc2)n1O [compound 9] | > 100 | > 100 | 96.7 ± 3.2 µM | > 100 | > 100 | – | – | – | – | – | –
15 | CNC(=O)Cc1cs/c(=N\C(=O)CS(=O)(=O)c2ccccc2)n1O [compound 10] | > 100 | > 100 | 43.6 ± 3.7 µM | 77.5 ± 23.8 | > 100 | – | – | – | – | – | –
16 | N#CCc1cs/c(=N\C(=O)CS(=O)(=O)c2ccccc2)n1O [compound 11] | > 100 | > 100 | > 100 µM | > 100 | > 100 | – | – | – | – | – | –
17 | O=C(O)CCc1cs/c(=N\C(=O)CS(=O)(=O)c2ccccc2)n1O [compound 13] | 2.2 ± 0.6 | – | 47.3 ± 4.7 µM | > 100 | > 100 | – | – | – | – | ~10 | –
18 | O=C(O)Cc1cs/c(=N\C(=O)CNC(=O)c2ccccc2)n1O [compound 16] | 1.2 ± 0.2 | – | 2.4 ± 1.1 µM | 1.7 ± 0.3 | > 100 | – | – | – | – | – | –
19 | O=C(O)Cc1cs/c(=N\C(=O)COc2ccccc2)n1O [compound 22] | 0.75 ± 0.23 | – | 20.2 ± 6.6 µM | 1.2 ± 0.2 | > 100 | – | – | – | – | – | –
20 | O=C(O)Cc1cs/c(=N\C(=O)CNc2ccccc2)n1O [compound 23] | 3.2 ± 1.1 | – | 11.1 ± 0.4 µM | 4.7 ± 1.1 | 71.6 ± 11.8 | – | – | – | – | – | –
